For 14 compounds, inhibition and melting point results are on record in paper PMC6268642, “Facile Synthesis and Herbicidal Evaluation of 4H-3,1-Benzoxazin-4-ones and 3H-Quinazolin-4-ones with 2-Phenoxymethyl Substituents” (Molecules, 2012).

One data set has as its system rape Brassica napus. Nature of the data set: Petri dish culture, growth inhibition of root and stalk of rape. The class given is in vivo. The note with it: Brassica napus, 120 h, 5 days; for inhibition at 1 µg/mL: 1 mg/L; for inhibition at 10 µg/mL: 10 mg/L. Here is the method: (§1) The synthesized compounds were tested for the herbicidal activity on model plants including a monocotyledon (barnyard grass) and a dicotyledon (rape) by the reported Petri dish culture method. The percent inhibitory ratios against the growth of root and stalk of barnyard grass and rape at different dosage concentrations were calculated, and the compounds with appreciable inhibitory potencies are selected and shown in Table 1 and Table 2. Several features of the inhibitory activities can be derived. First, all the compounds have stronger inhibition against the growth of the dicotyledon rape than against the monocotyledon barnyard grass, showing appreciable selectivity.
(§2) The herbicidal activity was examined for the growth inhibition effect of the dicotyledon rape Brassica napus and the monocotyledon barnyard grass Echinochloa crusgalli, using the standard Petri dish test and the pre-emergence treatment procedure. […] Nine mL of the solution was added in a Petri dish of 9 cm diameter and two pieces of filter paper were placed on the dish bottom. Twenty seeds each of rape and barnyard grass were placed on the filter paper. The covered Petri dish was transferred into an artificial climate incubator (MGC-400H, Shantou Keyi Co., Ltd., China), where the conditions were controlled at temperature 23 ± 1 °C, humidity 60 ± 5%, light intensity 10 Klux, and photoperiod 12 h/day. The incubation was continued for 5 days, then the lengths of 10 roots and 10 stems for each type of plant were measured and the mean values were calculated. The percent inhibitory ratios were calculated relative to control plants exposing to distilled water instead of the compound solution.

Data set [1] deals with barnyard grass Echinochloa crusgalli. Nature of the data set: Petri dish culture, growth inhibition of root and stalk of barnyard grass. The note with it: Echinochloa crus-galli, 120 h, 5 days; for inhibition at 1 µg/mL: 1 mg/L; for inhibition at 10 µg/mL: 10 mg/L. It is filed as in vivo. On the procedure: as §1, §2
[2] abbreviates: root growth, read-out: Relative inhibition, root.
Setting [3] is: stalk growth, read-out: Relative inhibition, stalk.

Read-outs that look alike come from different tables or passages of the source.

Turning to `Cc1ccc2nc(COc3ccc(Cl)cc3)n(C)c(=O)c2c1` [4n, 2-((4-Chlorophenoxy)methyl)-3,6-dimethyl-3H-quinazolin-4-one], the melting point lay within 196.4 to 197.6 °C. For the same compound, in the data set with rape Brassica napus (setting [2]), the inhibition at 1 µg/mL amounted to 39.4% and the inhibition at 10 µg/mL was found to be 45%. In the data set with rape Brassica napus (setting [3]), the inhibition at 1 µg/mL worked out at 7.8% and the inhibition at 10 µg/mL came to 16.6%. Further, in data set [1] (setting [2]), the inhibition at 1 µg/mL is 26.7% and the inhibition at 10 µg/mL amounted to 43.5%. For the same compound, in data set [1] (setting [3]), the inhibition at 1 µg/mL was 14.9% and the inhibition at 10 µg/mL was found to be 14.9%.
`Cc1ccc2nc(COc3ccc(Cl)cc3)n(N)c(=O)c2c1` [4d, 3-Amino-2-((4-chlorophenoxy)methyl)-6-methyl-3H-quinazolin-4-one] displayed a melting point of 177.3 to 178.6 °C. Also, in the data set with rape Brassica napus (setting [2]), the inhibition at 1 µg/mL worked out at 26.4% and the inhibition at 10 µg/mL turned out to be 31.3%. In the data set with rape Brassica napus (setting [3]), the inhibition at 1 µg/mL was -14.7% and the inhibition at 10 µg/mL is -3.4%. Also, in data set [1] (setting [2]), the inhibition at 1 µg/mL worked out at 16.3% and the inhibition at 10 µg/mL was determined as 35.6%. Further, in data set [1] (setting [3]), the inhibition at 1 µg/mL turned out to be 11.9% and the inhibition at 10 µg/mL was found to be 7.4%.
With `O=c1oc(COc2ccccc2)nc2ccc(Cl)cc12` [3c, 6-Chloro-2-(phenoxymethyl)-4H-3,1-benzoxazin-4-one], the melting point was 113.1 to 115.2 °C. In the data set on rape Brassica napus (setting [2]), the inhibition at 1 µg/mL came out at 45.4% and the inhibition at 10 µg/mL was determined as 83.9%. Also, in the data set on rape Brassica napus (setting [3]), the inhibition at 1 µg/mL was determined as 26.7% and the inhibition at 10 µg/mL worked out at 64.6%. Moreover, in data set [1] (setting [2]), the inhibition at 1 µg/mL is 23.7% and the inhibition at 10 µg/mL worked out at 62.6%. In addition, in data set [1] (setting [3]), the inhibition at 1 µg/mL came out at 0.3% and the inhibition at 10 µg/mL worked out at 46.7%.
Compound `O=c1oc(COc2ccc(F)cc2)nc2ccc(Cl)cc12` [3t, 6-Chloro-2-((4-fluorophenoxy)methyl)-4H-3,1-benzoxazin-4-one] came in with a melting point of 159.8 to 161.7 °C. In the data set on rape Brassica napus (setting [2]), the inhibition at 1 µg/mL stood at 85.5% and the inhibition at 10 µg/mL worked out at 99.3%. In the data set with rape Brassica napus (setting [3]), the inhibition at 1 µg/mL came to 60% and the inhibition at 10 µg/mL amounted to 91.7%. Besides, in data set [1] (setting [2]), the inhibition at 1 µg/mL came out at 66.3% and the inhibition at 10 µg/mL was 93.2%. Moreover, in data set [1] (setting [3]), the inhibition at 1 µg/mL came out at 36.4% and the inhibition at 10 µg/mL was found to be 49.1%.
`Cn1c(COc2ccc(Cl)cc2)nc2cc(Cl)ccc2c1=O` [4m, 7-Chloro-2-((4-chlorophenoxy)methyl)-3-methyl-3H-quinazolin-4-one] gave a melting point of 202.4 to 203.9 °C. Also, in the data set on rape Brassica napus (setting [2]), the inhibition at 1 µg/mL was 26.2% and the inhibition at 10 µg/mL amounted to 27.9%. In the data set with rape Brassica napus (setting [3]), the inhibition at 1 µg/mL stood at 1.5% and the inhibition at 10 µg/mL was -0.5%. In data set [1] (setting [2]), the inhibition at 1 µg/mL came out at 14.8% and the inhibition at 10 µg/mL is 29.2%. For the same compound, in data set [1] (setting [3]), the inhibition at 1 µg/mL was 7.5% and the inhibition at 10 µg/mL came out at 14.9%.
Compound `COc1cc2nc(COc3ccc(F)cc3)oc(=O)c2cc1OC` [3w, 2-((4-Fluorophenoxy)methyl)-6,7-dimethoxy-4H-3,1-benzoxazin-4-one] had a melting point of 144.7 to 146 °C. In addition, in the data set on rape Brassica napus (setting [2]), the inhibition at 1 µg/mL is 35.2% and the inhibition at 10 µg/mL turned out to be 79.7%. In the data set with rape Brassica napus (setting [3]), the inhibition at 1 µg/mL amounted to 12.8% and the inhibition at 10 µg/mL was 41.4%. In data set [1] (setting [2]), the inhibition at 1 µg/mL came out at 37.5% and the inhibition at 10 µg/mL came out at 64.5%. Also, in data set [1] (setting [3]), the inhibition at 1 µg/mL amounted to 12.8% and the inhibition at 10 µg/mL was 16.4%.
`Cn1c(COc2ccc(Cl)cc2Cl)nc2ccccc2c1=O` [4p, 2-((2,4-Dichlorophenoxy)methyl)-3-methy-3H-quinazolin-4-one] had a melting point of 172.1 to 173.4 °C. Moreover, in the data set on rape Brassica napus (setting [2]), the inhibition at 1 µg/mL stood at 4.5% and the inhibition at 10 µg/mL worked out at 21.2%. For the same compound, in the data set with rape Brassica napus (setting [3]), the inhibition at 1 µg/mL was 27.1% and the inhibition at 10 µg/mL amounted to 29.2%. In addition, in data set [1] (setting [2]), the inhibition at 1 µg/mL is 2.5% and the inhibition at 10 µg/mL came to 29.4%. Further, in data set [1] (setting [3]), the inhibition at 1 µg/mL was -10.9% and the inhibition at 10 µg/mL is -47.3%.
On to `O=c1oc(COc2ccccc2)nc2ccccc12` [3a, 2-(Phenoxymethyl)-4H-3,1-benzoxazin-4-one], for which the melting point fell in the range of 87.9 to 92.1 °C. In the data set on rape Brassica napus (setting [2]), the inhibition at 1 µg/mL stood at 71.2% and the inhibition at 10 µg/mL was 89.1%. Besides, in the data set with rape Brassica napus (setting [3]), the inhibition at 1 µg/mL was 27% and the inhibition at 10 µg/mL came out at 79.4%. Besides, in data set [1] (setting [2]), the inhibition at 1 µg/mL stood at 19.3% and the inhibition at 10 µg/mL came to 64.8%. Besides, in data set [1] (setting [3]), the inhibition at 1 µg/mL was -29.6% and the inhibition at 10 µg/mL is 26.9%.
Take `Nn1c(COc2ccc(Cl)cc2)nc2cc(Cl)ccc2c1=O` [4c, 3-Amino-7-chloro-2-((4-chlorophenoxy)methyl)-3H-quinazolin-4-one]: the melting point lay within 129.5 to 131.6 °C. For the same compound, in the data set with rape Brassica napus (setting [2]), the inhibition at 1 µg/mL turned out to be 27.7% and the inhibition at 10 µg/mL amounted to 69.7%. For the same compound, in the data set with rape Brassica napus (setting [3]), the inhibition at 1 µg/mL was -9.3% and the inhibition at 10 µg/mL came to 41.6%. In data set [1] (setting [2]), the inhibition at 1 µg/mL came out at 10.4% and the inhibition at 10 µg/mL came out at 42.1%. Also, in data set [1] (setting [3]), the inhibition at 1 µg/mL came to 1.4% and the inhibition at 10 µg/mL was determined as 17.9%.
With `O=c1oc(COc2ccc(F)cc2)nc2cccc(Cl)c12` [3s, 5-Chloro-2-((4-fluorophenoxy)methyl)-4H-3,1-benzoxazin-4-one], the melting point was in the range of 155.9 to 156.7 °C. In the data set on rape Brassica napus (setting [2]), the inhibition at 1 µg/mL turned out to be 72.8% and the inhibition at 10 µg/mL was 98.6%. For the same compound, in the data set with rape Brassica napus (setting [3]), the inhibition at 1 µg/mL was 25.7% and the inhibition at 10 µg/mL stood at 94.8%. In data set [1] (setting [2]), the inhibition at 1 µg/mL was 61.1% and the inhibition at 10 µg/mL was determined as 91%. For the same compound, in data set [1] (setting [3]), the inhibition at 1 µg/mL was determined as 11.8% and the inhibition at 10 µg/mL turned out to be 46.3%.
`Cc1ccc2nc(COc3ccc(Cl)cc3)oc(=O)c2c1` [3k, 2-((4-Chlorophenoxy)methyl)-6-methyl-4H-3,1-benzoxazin-4-one] showed a melting point of 143.7 to 145.6 °C. Further, in the data set on rape Brassica napus (setting [2]), the inhibition at 1 µg/mL is 84.7% and the inhibition at 10 µg/mL was determined as 100%. Besides, in the data set on rape Brassica napus (setting [3]), the inhibition at 1 µg/mL was determined as 29.3% and the inhibition at 10 µg/mL was 82.1%. Further, in data set [1] (setting [2]), the inhibition at 1 µg/mL was 48.4% and the inhibition at 10 µg/mL was 77.1%. Moreover, in data set [1] (setting [3]), the inhibition at 1 µg/mL worked out at 18.2% and the inhibition at 10 µg/mL is -8.8%.
For the compound `COc1cc2nc(COc3ccc(Cl)cc3)n(C)c(=O)c2cc1OC` [4o, 2-((4-Chlorophenoxy)methyl)-6,7-dimethoxy-3-methyl-3H-quinazolin-4-one], the melting point lay within 201.8 to 202.7 °C. In addition, in the data set on rape Brassica napus (setting [2]), the inhibition at 1 µg/mL came out at 25.1% and the inhibition at 10 µg/mL turned out to be 34.8%. For the same compound, in the data set on rape Brassica napus (setting [3]), the inhibition at 1 µg/mL came out at 1.9% and the inhibition at 10 µg/mL was -6.8%. In data set [1] (setting [2]), the inhibition at 1 µg/mL was found to be 13.3% and the inhibition at 10 µg/mL worked out at 17.3%. In data set [1] (setting [3]), the inhibition at 1 µg/mL is 8.9% and the inhibition at 10 µg/mL turned out to be 5.9%.
`COc1cc2nc(COc3ccc(Cl)cc3Cl)n(C)c(=O)c2cc1OC` [4s, 2-((2,4-Dichlorophenoxy)methyl)-6,7-dimethoxy-3-methyl-3H-quinazolin-4-one] came in with a melting point of 243.9 to 245.2 °C. In the data set on rape Brassica napus (setting [2]), the inhibition at 1 µg/mL was found to be 7.1% and the inhibition at 10 µg/mL was found to be 20.7%. Besides, in the data set on rape Brassica napus (setting [3]), the inhibition at 1 µg/mL amounted to 8.1% and the inhibition at 10 µg/mL turned out to be 20.3%. Also, in data set [1] (setting [2]), the inhibition at 1 µg/mL was 30% and the inhibition at 10 µg/mL was found to be 52.2%. In data set [1] (setting [3]), the inhibition at 1 µg/mL was -20.3% and the inhibition at 10 µg/mL is -54.5%.
In turn, `Cc1ccc2nc(COc3ccc(F)cc3)oc(=O)c2c1` [3v, 2-((4-Fluorophenoxy)methyl)-6-methyl-4H-3,1-benzoxazin-4-one] returned a melting point of 130.8 to 131.9 °C. Besides, in the data set on rape Brassica napus (setting [2]), the inhibition at 1 µg/mL amounted to 87.7% and the inhibition at 10 µg/mL is 99.3%. In addition, in the data set with rape Brassica napus (setting [3]), the inhibition at 1 µg/mL was 61% and the inhibition at 10 µg/mL came out at 93.7%. For the same compound, in data set [1] (setting [2]), the inhibition at 1 µg/mL was 69.9% and the inhibition at 10 µg/mL was 92.2%. In data set [1] (setting [3]), the inhibition at 1 µg/mL turned out to be 24.1% and the inhibition at 10 µg/mL was 31.7%.
